Measured values from article PMC8145596, “Novel Chemically Modified Curcumin (CMC) Derivatives Inhibit Tyrosinase Activity and Melanin Synthesis in B16F10 Mouse Melanoma Cells” (Biomolecules, 2021).

Legend:
[1] = Copper chelating assay (pyrocatechol violet)
Experimental: Copper chelation can be detected by a PV colorimetric assay as reported in other studies and similar to the method reported in our previous study. Briefly, 100 µL aliquots of different concentrations of compounds prepared in 50 mM sodium acetate buffer (pH 6.0) were added to a 96-well plate. The control group consisted of buffer only, while KA at 500 µM served as a positive control. Copper sulfate (2 mM; 10 µL) was added to each of the samples and incubated for 10 min. Next, 10 µL of 2 mM PV was added and the plate was further incubated for 20 min. The absorbance was read at 632 nm using a microplate reader; a lower absorbance compared to that of the buffer control was indicative of copper chelation.

[2] = test system: MNT-1 human melanoma cells; assay: Melanin content assay in MNT-1 cells; format: cell-based; conditions: 48 h; CMC2.24 at 20 µM; preliminary evaluation
Experimental: (§1) II. Experiments in MNT-1 human melanoma cells
(§2) MNT-1 cells (kindly provided by Dr. Michael Marks, University of Pennsylvania) were cultured using DMEM supplemented with 1 % MEM (minimum essential medium), 18 % HI-FBS, 10 % AIM-V medium (Gibco) and 1 % antibiotic mixture.
(§3) MNT-1 human melanoma cells (2 × 10^4 cells/ well) were seeded in a 96-well plate and cultured for 96 h. After this, the test compounds were added in complete medium and cultures were maintained for 48 h, followed by conducting the MTS assay to detect cytotoxicity similar to methods reports in main text. The results were expressed as % normalized to untreated control group.
(§4) MNT-1 human melanoma cells were seeded at 2.2 × 10^5 cells/well in 12-well plates and incubated for 24 hours. […] Briefly, the absorbance of melanin was measured at 475 nm and was normalized to the total protein contents and reported as relative melanin levels as a % of control.
(§5) Figure S3: Viability of MNT-1 cells treated with A) PC, CMC2.14 and CMC2.5 and B) CMC2.23 and CMC2.24 for a duration of 48 h evaluated by MTS assay; Data for A)-B) are mean ± SD of 3-4 determinations; C) Melanin content in cultures of MNT-1 cells treated for 48 h with different concentrations of PC and CMCs, Data are mean ± SD of values combined from two independent experiments. * p < 0.05 vs. control (Ctrl); One-way ANOVA with Tukey’s […]

[3] = test system: breast cancer cells; design: method as in PMID 31505772; conditions: cited from earlier work
[4] = MTS cell viability assay; format: cell-based, mouse; conditions: mouse, B16F10 mouse melanoma cells, 48 h, B16F10
Experimental: B16F10 mouse melanoma cells (CRL-6475™) were obtained from American Type Culture Collection (ATCC, Manassas, VA, USA) and cultured using Dulbecco’s Modified Eagle Medium (DMEM) supplemented with 10% heat-inactivated fetal bovine serum (HI-FBS) and 1% antibiotics (penicillin-streptomycin) in a humidified incubator with 95% air—5% CO2 at 37 °C. In order to test the four CMCs (CMC2.14, CMC2.24, CMC2.5 and CMC2.23) to that of PC, for their effects on melanin content, we first screened them for cytotoxicity using a tetrazolium assay with MTS (Promega CellTiter Aqueous One). Briefly, B16F10 cells were seeded at 4 × 10^3 cells/well in a 96-well plate for 24 h. The compounds were diluted using culture medium to yield a final DMSO in all groups of 0.16% and added to the cell monolayers in wells after 24 h. Control was treated with 0.16% DMSO. At the end of 48 h, the medium was aspirated and replaced by 100 μL of fresh medium. 20 μL of MTS reagent was then added, and the plate was incubated at 37 °C for 40 min. At this point, the absorbance of 100 μL aliquots was read at 490 nm using a microplate reader. Cell viability was calculated from the absorbance values relative to control groups and expressed in %.

[5] = test system: MNT-1 human melanoma cells; assay: MTS cytotoxicity assay in MNT-1 cells; format: cell-based; conditions: 20 µM, 48 h
Experimental: as §1, §2, §3, §4, §5

| Molecule | effect on copper chelation [1] | melanin inhibition in MNT-1 cells [2] | concentrations highly cytotoxic to breast cancer cells [3] [µM] | viability at 48 h, 20 µM ([4]; 20 µM) [%] | viability at 48 h, 25 µM ([4]; 25 µM) [%] | copper chelating activity ([1]; 20 µM, compared to the control) [%] | cytotoxicity in MNT-1 cells [5] |
| --- | --- | --- | --- | --- | --- | --- | --- |
| 1,7-bis(4-hydroxy-3-methoxyphenyl)-1,6-heptadien-3,5-dione [PC, reference compound] | did not show any effect on copper chelation | ineffective | > 10 |  |  |  |  |
| COC(=O)/C(C(=O)/C=C/c1ccc(O)cc1)=C(O)\C=C\c1ccc(O)cc1 [CMC2.14] |  |  |  | 72.2 | 55.5 |  |  |
| O=C(/C=C/c1ccc(O)cc1)/C(C(=O)Nc1ccccc1)=C(O)/C=C/c1ccc(O)cc1 [CMC2.24] |  | significant attenuation of melanin levels |  |  |  | 11.86 | nontoxic |
